# In the supplement of paper PMC10307832:
# Experiments:
# Test in all cases: relative viability (nuclei count vs DMSO), 5 days (fraction); higher = more cells survive
# [1] = tested on: NCI-H1563
# Method in brief: (§1)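 Cells from lung cancer lines were seeded into 1536-well plates and, one day later, dosed by pin tool. Treatments were either a single drug or a fixed dose of an anchor drug with five library-drug doses (not always all listed) in √10 steps. After 5 days, nuclei were stained in a one-step fixation (final 0.05% Triton X-100, 1% formaldehyde, 1 ug/ml Hoechst) and counted on 4× images, and relative viability is the treated-to-vehicle nuclei ratio, as the median of duplicate plates.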
# [2] = tested on: 201T
# Method in brief: as §1
# [3] = tested on: SW 1573
# Method in brief: as §1
# [4] = tested on: NCI-H727
# Method in brief: as §1
# [5] = tested on: NCI-H1650
# Method in brief: as §1
# [6] = tested on: H3255
# Method in brief: as §1
# [7] = tested on: NCI-H1793
# Method in brief: as §1
# [8] = tested on: LK-2
# Method in brief: as §1
# [9] = tested on: NCI-H2228
# Method in brief: as §1
# [10] = tested on: HCC-44
# Method in brief: as §1
# [11] = tested on: LC-2-ad
# Method in brief: as §1
# [12] = tested on: NCI-H23
# Method in brief: as §1
# [13] = tested on: NCI-H596
# Method in brief: as §1
# [14] = tested on: PC-14
# Method in brief: as §1
# [15] = tested on: COR-L23
# Method in brief: as §1
# [16] = tested on: A-427
# Method in brief: as §1
# [17] = tested on: LU99A
# Method in brief: as §1
# [18] = tested on: NCI-H460
# Method in brief: as §1
# [19] = tested on: LCLC-103H
# Method in brief: as §1
# [20] = tested on: NCI-H2347
# Method in brief: as §1
# [21] = tested on: LCLC-97TM1
# Method in brief: as §1
smiles,measurement,setting,value
Nc1ccn([C@@H]2O[C@H](CO)[C@@H](O)[C@@H]2O)c(=O)n1 [Cytarabine] + CS(=O)(=O)N1CCN(Cc2cc3nc(-c4cccc5[nH]ncc45)nc(N4CCOCC4)c3s2)CC1 [Pictilisib] (partner 1 µM),relative viability,[1]; first compound 0.005 µM,0.595
same,relative viability,[1]; first compound 0.01581 µM,0.649
same,relative viability,[1]; first compound 0.05 µM,0.657
same,relative viability,[1]; first compound 0.1581 µM,0.589
same,relative viability,[1]; first compound 0.5 µM,0.6
same,relative viability,[2]; first compound 0.005 µM,0.655
same,relative viability,[2]; first compound 0.01581 µM,0.707
same,relative viability,[2]; first compound 0.05 µM,0.738
same,relative viability,[2]; first compound 0.1581 µM,0.576
same,relative viability,[2]; first compound 0.5 µM,0.416
same,relative viability,[3]; first compound 0.005 µM,0.362
same,relative viability,[3]; first compound 0.01581 µM,0.378
same,relative viability,[3]; first compound 0.05 µM,0.317
same,relative viability,[3]; first compound 0.1581 µM,0.134
same,relative viability,[3]; first compound 0.5 µM,0.106
same,relative viability,[4]; first compound 0.005 µM,0.45
same,relative viability,[4]; first compound 0.01581 µM,0.237
same,relative viability,[4]; first compound 0.05 µM,0.211
same,relative viability,[4]; first compound 0.1581 µM,0.222
same,relative viability,[4]; first compound 0.5 µM,0.203
same,relative viability,[5]; first compound 0.005 µM,0.442
same,relative viability,[5]; first compound 0.01581 µM,0.467
same,relative viability,[5]; first compound 0.05 µM,0.359
same,relative viability,[5]; first compound 0.1581 µM,0.205
same,relative viability,[5]; first compound 0.5 µM,0.181
same,relative viability,[6]; first compound 0.005 µM,0.438
same,relative viability,[6]; first compound 0.01581 µM,0.446
same,relative viability,[6]; first compound 0.05 µM,0.403
same,relative viability,[6]; first compound 0.1581 µM,0.294
same,relative viability,[6]; first compound 0.5 µM,0.303
same,relative viability,[7]; first compound 0.005 µM,0.312
same,relative viability,[7]; first compound 0.01581 µM,0.29
same,relative viability,[7]; first compound 0.05 µM,0.383
same,relative viability,[7]; first compound 0.1581 µM,0.307
same,relative viability,[7]; first compound 0.5 µM,0.194
same,relative viability,[8]; first compound 0.005 µM,0.531
same,relative viability,[8]; first compound 0.01581 µM,0.476
same,relative viability,[8]; first compound 0.05 µM,0.426
same,relative viability,[8]; first compound 0.1581 µM,0.23
same,relative viability,[8]; first compound 0.5 µM,0.235
same,relative viability,[9]; first compound 0.005 µM,0.29
same,relative viability,[9]; first compound 0.01581 µM,0.188
same,relative viability,[9]; first compound 0.05 µM,0.399
same,relative viability,[9]; first compound 0.1581 µM,0.109
same,relative viability,[9]; first compound 0.5 µM,0.146
same,relative viability,[10]; first compound 0.005 µM,0.492
same,relative viability,[10]; first compound 0.01581 µM,0.599
same,relative viability,[10]; first compound 0.05 µM,0.5
same,relative viability,[10]; first compound 0.1581 µM,0.349
same,relative viability,[10]; first compound 0.5 µM,0.385
same,relative viability,[11]; first compound 0.005 µM,0.402
same,relative viability,[11]; first compound 0.01581 µM,0.419
same,relative viability,[11]; first compound 0.05 µM,0.361
same,relative viability,[11]; first compound 0.1581 µM,0.212
same,relative viability,[11]; first compound 0.5 µM,0.16
same,relative viability,[12]; first compound 0.005 µM,0.527
same,relative viability,[12]; first compound 0.01581 µM,0.346
same,relative viability,[12]; first compound 0.05 µM,0.327
same,relative viability,[12]; first compound 0.1581 µM,0.156
same,relative viability,[12]; first compound 0.5 µM,0.138
same,relative viability,[13]; first compound 0.005 µM,0.432
same,relative viability,[13]; first compound 0.01581 µM,0.396
same,relative viability,[13]; first compound 0.05 µM,0.355
same,relative viability,[13]; first compound 0.1581 µM,0.277
same,relative viability,[13]; first compound 0.5 µM,0.315
same,relative viability,[14]; first compound 0.01581 µM,0.698
same,relative viability,[14]; first compound 0.05 µM,0.49
same,relative viability,[14]; first compound 0.5 µM,0.126
same,relative viability,[15]; first compound 0.005 µM,0.637
same,relative viability,[15]; first compound 0.01581 µM,0.51
same,relative viability,[15]; first compound 0.05 µM,0.532
same,relative viability,[15]; first compound 0.1581 µM,0.171
same,relative viability,[15]; first compound 0.5 µM,0.112
same,relative viability,[16]; first compound 0.005 µM,0.576
same,relative viability,[16]; first compound 0.01581 µM,0.419
same,relative viability,[16]; first compound 0.05 µM,0.314
same,relative viability,[16]; first compound 0.1581 µM,0.178
same,relative viability,[16]; first compound 0.5 µM,0.147
same,relative viability,[17]; first compound 0.005 µM,0.372
same,relative viability,[17]; first compound 0.01581 µM,0.305
same,relative viability,[17]; first compound 0.05 µM,0.282
same,relative viability,[17]; first compound 0.1581 µM,0.308
same,relative viability,[17]; first compound 0.5 µM,0.299
same,relative viability,[18]; first compound 0.005 µM,0.328
same,relative viability,[18]; first compound 0.01581 µM,0.322
same,relative viability,[18]; first compound 0.05 µM,0.226
same,relative viability,[18]; first compound 0.1581 µM,0.106
same,relative viability,[18]; first compound 0.5 µM,0.0854
same,relative viability,[19]; first compound 0.005 µM,0.614
same,relative viability,[19]; first compound 0.01581 µM,0.624
same,relative viability,[19]; first compound 0.05 µM,0.565
same,relative viability,[19]; first compound 0.1581 µM,0.513
same,relative viability,[19]; first compound 0.5 µM,0.617
same,relative viability,[20]; first compound 0.005 µM,0.536
same,relative viability,[20]; first compound 0.01581 µM,0.811
same,relative viability,[20]; first compound 0.05 µM,0.778
same,relative viability,[20]; first compound 0.1581 µM,0.482
same,relative viability,[20]; first compound 0.5 µM,0.588
same,relative viability,[21]; first compound 0.005 µM,0.207
same,relative viability,[21]; first compound 0.01581 µM,0.177
same,relative viability,[21]; first compound 0.05 µM,0.0754
same,relative viability,[21]; first compound 0.1581 µM,0.124
same,relative viability,[21]; first compound 0.5 µM,0.108
